Results published in ChEMBL document CHEMBL1201862, “PubChem BioAssay data set” (2004).
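Following 48 hours of exposure in 96-well plates, responses at five concentrations were used to interpolate endpoints linearly. GI50 marks 50% less growth.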 The source made the active and inactive calls. Cut-off read from the data, not from the text of the source: active = GI50 up to about 1.1 µM and inactive = higher.

Experiments:
Assay in all cases: inhibition of tumour cell growth, NCI panel, 48 h
786-0 = tested on: 786-0
A549 = tested on: A549
ACHN = tested on: ACHN
CAKI-1 = tested on: CAKI-1
DU-145 = tested on: DU-145
EKVX = tested on: EKVX
HCT-116 = tested on: HCT-116
HCT-15 = tested on: HCT-15
HL-60 = tested on: HL-60
HOP-62 = tested on: HOP-62
HOP-92 = tested on: HOP-92
Hs-578T = tested on: Hs-578T
K562 = tested on: K562
LOX IMVI = tested on: LOX IMVI
M14 = tested on: M14
MCF7 = tested on: MCF7
MDA-MB-435 = tested on: MDA-MB-435
MDA-N = tested on: MDA-N
Malme-3M = tested on: Malme-3M
NCI-H23 = tested on: NCI-H23
NCI-H460 = tested on: NCI-H460
NCI-H522 = tested on: NCI-H522
OVCAR-3 = tested on: OVCAR-3
OVCAR-4 = tested on: OVCAR-4
OVCAR-5 = tested on: OVCAR-5
OVCAR-8 = tested on: OVCAR-8
PC-3 = tested on: PC-3
SF-268 = tested on: SF-268
SK-MEL-28 = tested on: SK-MEL-28
SK-MEL-2 = tested on: SK-MEL-2
SN12C = tested on: SN12C
SNB-19 = tested on: SNB-19
T47D = tested on: T47D
TK-10 = tested on: TK-10
U-251 = tested on: U-251
UACC-62 = tested on: UACC-62
CCRF-CEM = tested on: CCRF-CEM
COLO 205 = tested on: COLO 205
HT-29 = tested on: HT-29
KM12 = tested on: KM12
MOLT-4 = tested on: MOLT-4
NCI-H226 = tested on: NCI-H226
RPMI-8226 = tested on: RPMI-8226
RXF 393 = tested on: RXF 393
SF-295 = tested on: SF-295
SF-539 = tested on: SF-539
SK-MEL-5 = tested on: SK-MEL-5
SK-OV-3 = tested on: SK-OV-3
SNB-75 = tested on: SNB-75
SR = tested on: SR
SW-620 = tested on: SW-620
UACC-257 = tested on: UACC-257
UO-31 = tested on: UO-31

Q: `N=C(N)c1ccc(OCCCCCOc2ccc(C(=N)N)cc2)cc1` was tested. Which GI50 (786-0) did it give?
A: 13.4 µM (inactive)

Q: And the GI50 (A549)?
A: 6.17 µM (inactive)

Q: And the GI50 (ACHN)?
A: 14.4 µM (inactive)

Q: What about the GI50 (CAKI-1) of the same compound?
A: > 100 µM (inactive)

Q: What about the GI50 (DU-145) of the same compound?
A: 13.6 µM (inactive)

Q: And the GI50 (EKVX)?
A: 18.1 µM (inactive)

Q: And the GI50 (HCT-116)?
A: 14.4 µM (inactive)

Q: And the GI50 (HCT-15)?
A: 16.7 µM

Q: What about the GI50 (HL-60) of the same compound?
A: 15.3 µM (inactive)

Q: And the GI50 (HOP-62)?
A: 16.1 µM (inactive)

Q: And the GI50 (HOP-92)?
A: 32.6 µM (inactive)

Q: And the GI50 (Hs-578T)?
A: 11.5 µM (inactive)

Q: And the GI50 (K562)?
A: 1.92 µM (inactive)

Q: What about the GI50 (LOX IMVI) of the same compound?
A: 12.7 µM (inactive)

Q: And the GI50 (M14)?
A: 15.2 µM (inactive)

Q: And the GI50 (MCF7)?
A: 5.31 µM (inactive)

Q: What about the GI50 (MDA-MB-435) of the same compound?
A: 10.4 µM (inactive)

Q: And the GI50 (MDA-N)?
A: 11.2 µM (inactive)

Q: And the GI50 (Malme-3M)?
A: 13.8 µM (inactive)

Q: What about the GI50 (NCI-H23) of the same compound?
A: 6.71 µM (inactive)

Q: And the GI50 (NCI-H460)?
A: 3.08 µM (inactive)

Q: And the GI50 (NCI-H522)?
A: 6.44 µM (inactive)

Q: And the GI50 (OVCAR-3)?
A: 15.5 µM (inactive)

Q: And the GI50 (OVCAR-4)?
A: 11.2 µM (inactive)

Q: And the GI50 (OVCAR-5)?
A: 22.8 µM (inactive)

Q: What about the GI50 (OVCAR-8) of the same compound?
A: 7.85 µM (inactive)

Q: What about the GI50 (PC-3) of the same compound?
A: 12.1 µM (inactive)

Q: What about the GI50 (SF-268) of the same compound?
A: 12.5 µM (inactive)

Q: What about the GI50 (SK-MEL-28) of the same compound?
A: 10.2 µM (inactive)

Q: What about the GI50 (SK-MEL-2) of the same compound?
A: 17.3 µM (inactive)

Q: What about the GI50 (SN12C) of the same compound?
A: 7.06 µM (inactive)

Q: What about the GI50 (SNB-19) of the same compound?
A: 15.7 µM (inactive)

Q: And the GI50 (T47D)?
A: 7.73 µM (inactive)

Q: And the GI50 (TK-10)?
A: 13.6 µM (inactive)

Q: And the GI50 (U-251)?
A: 9.84 µM (inactive)

Q: What about the GI50 (UACC-62) of the same compound?
A: 11.5 µM (inactive)

Q: Which results are given for `CC(=O)OC1[C@H](OC(C)=O)C2=C(C)[C@@H](OC(C)=O)C[C@@]2(C(C)(C)O)[C@@H](OC(C)=O)[C@H]2[C@@]1(C)[C@@H](OC(C)=O)CC(OC(C)=O)[C@]21CO1` (some centres not stated)?
A: GI50 (786-0): > 100 µM (inactive); GI50 (A549): > 100 µM (inactive); GI50 (ACHN): > 100 µM (inactive); GI50 (CAKI-1): > 100 µM (inactive); GI50 (CCRF-CEM): > 100 µM (inactive); GI50 (COLO 205): > 100 µM (inactive); GI50 (DU-145): > 100 µM (inactive); GI50 (EKVX): > 100 µM (inactive); GI50 (HCT-116): > 100 µM (inactive); GI50 (HCT-15): > 100 µM; GI50 (HL-60): > 100 µM (inactive); GI50 (HOP-62): > 100 µM (inactive); GI50 (HT-29): > 100 µM (inactive); GI50 (Hs-578T): > 100 µM (inactive); GI50 (K562): > 100 µM (inactive); GI50 (KM12): > 100 µM (inactive); GI50 (LOX IMVI): > 100 µM (inactive); GI50 (M14): > 100 µM (inactive); GI50 (MCF7): > 100 µM (inactive); GI50 (MDA-MB-435): > 100 µM (inactive); GI50 (MDA-N): > 100 µM (inactive); GI50 (MOLT-4): > 100 µM (inactive); GI50 (Malme-3M): > 100 µM (inactive); GI50 (NCI-H226): > 100 µM (inactive); GI50 (NCI-H23): > 100 µM (inactive); GI50 (NCI-H522): > 100 µM (inactive); GI50 (OVCAR-3): > 100 µM (inactive); GI50 (OVCAR-4): > 100 µM (inactive); GI50 (OVCAR-5): > 100 µM (inactive); GI50 (OVCAR-8): > 100 µM (inactive); GI50 (PC-3): > 100 µM (inactive); GI50 (RPMI-8226): > 100 µM (inactive); GI50 (RXF 393): > 100 µM (inactive); GI50 (SF-268): > 100 µM (inactive); GI50 (SF-295): > 100 µM (inactive); GI50 (SF-539): > 100 µM (inactive); GI50 (SK-MEL-28): > 100 µM (inactive); GI50 (SK-MEL-2): > 100 µM (inactive); GI50 (SK-MEL-5): > 100 µM (inactive); GI50 (SK-OV-3): > 100 µM (inactive); GI50 (SN12C): > 100 µM (inactive); GI50 (SNB-19): > 100 µM (inactive); GI50 (SNB-75): > 100 µM (inactive); GI50 (SR): > 100 µM (inactive); GI50 (SW-620): > 100 µM (inactive); GI50 (T47D): > 100 µM (inactive); GI50 (TK-10): > 100 µM (inactive); GI50 (U-251): > 100 µM (inactive); GI50 (UACC-257): > 100 µM (inactive); GI50 (UACC-62): > 100 µM (inactive); GI50 (UO-31): > 100 µM (inactive)
